Drawing on patent US5449814A, “Lignan analogues, methods of preparation thereof and anti-hyperlipemic agents” (Shionogi & Co., Ltd., priority 1991, dated 1995), this text covers IC50 and inhibition in vivo for nine molecules.

Where two headings read alike, the source gives them in different places.

For one experiment, the system named is LDL. As to the kind of experiment: Inhibitory effect on oxidative modification of LDL (copper-induced, TBA reactive substances). The following applies: rabbit LDL 0.2 mg protein/ml, 0.5 μM Cu^2+, 37° C., 24 hours; read-out: Inhibition of LDL oxidation IC50. Type of experiment: biochemical, New Zealand albino rabbits. As for the experimental part: Inhibitory effect on oxidative modification of LDL
According to the method by Kita et al. (Proc. Natl. Acad. Sci., U.S.A, Vol. 84, 5928 (1987)), the experiment was proceeded as follows.
LDL was isolated from the blood of New Zealand albino rabbits fed with a diet containing 0.5% cholesterol for 3 weeks, and dissolved in phosphate-buffered physiological saline (final LDL concentration: 0.2 mg protein/ml). To this solution, each test compound in ethanol was added and then copper sulfate (final Cu^2+ concentration: 0.5 μM) was added thereto. The mixture was incubated at 37° C. for 24 hours.
After incubation, the content of lipid peroxides in each solution was determined as thiobarbituric acid reactive substances (TBA reactive substances). Concentration for 50% inhibition (IC50) was obtained from a linear regression curve of concentration of a compound versus % inhibition of oxidative modification of LDL. To quantify TBA reactive substances, proteins were removed from the solution after incubation, and the supernatant was examined for the content of TBA reactive substances by TBA method.

The subject of a further experiment is cholesterol in serum. Description: Hypocholesterolemic effect in cholesterol-fed mice. The following applies: Mus musculus, po, 168 h, diet 1% cholesterol and 0.5% sodium cholate with 0.12% test compound, 7 days. Type of experiment: in vivo, Male ICR mice. The method, then:
Hypocholesterolemic effect
Male ICR mice weighing 30 to 40 g were allowed to access to a diet containing 1% cholesterol and 0.5% sodium cholate supplemented with 0.12% of a test compound (no test compound in control group) ad libitum for 7 days. Then, the blood was taken and total cholesterol in serum was determined by the method of Allain (Clin. Chem., Vol. 20, 470 (1974)).
Total amount of VLDL cholesterol and LDL cholesterol was obtained by subtracting HLD cholesterol from total cholesterol. HLD cholesterol was quantified by the method of Ash and Hentschel et al. (Clin. Chem., Vol. 24, 2180 (1978)).
Hypocholesterolemic effect of a test compound was evaluated based on % reduction in cholesterol calculated using the equation shown below.

Where [1] appears, read: serum, read-out: Total Chol. reduction (%).
Where [2] appears, read: total minus HDL cholesterol, read-out: (VLDL + LDL) Chol. reduction (%).

Turning to `COC(=O)c1c(C(=O)c2ccccc2OC)c(O)c2cc(OC)c(OC)c(OC)c2c1-c1ccc(OC)c(OC)c1` [Example 20, 1-(3,4-Dimethoxyphenyl)-4-hydroxy-3-(2-methoxybenzoyl)-2-methoxycarbonyl-6,7,8-trimethoxynaphthalene], the half-maximal inhibitory concentration (IC50) – broadly, the concentration that inhibits the measured activity by half – in the experiment on LDL amounted to 2500 nM. Moreover, the results for the inhibition in vivo at 0.12 % in diet with cholesterol in serum (setting [1]) and in the experiment on cholesterol in serum (setting [2]) were 14% and 63%, respectively.
In the same order, the values of `COC(=O)c1c(C(=O)C2CCCCC2)c(O)c2cc(OC)c(OC)c(OC)c2c1-c1ccc(OC)c(OC)c1` [Example 5, 3-Cyclohexanoyl-1-(3,4-dimethoxyphenyl)-4-hydroxy-2-methoxycarbonyl-6,7,8-trimethoxynaphthalene] are 460 nM, 22% and 61%.
As for `CCC(CC)CC(=O)c1c(C(=O)OC)c(-c2ccc(OC)c(OC)c2)c2c(OC)c(OC)c(OC)cc2c1O` [Example 1, 1-(3,4-dimethoxyphenyl)-3-(3-ethyl-1-oxopentyl)-4-hydroxy-2-methoxycarbonyl-6,7,8-trimethoxynaphthalene], in the experiment on LDL, the IC50 amounted to 400 nM. In addition, the figures for the inhibition in vivo at 0.12 % in diet in the experiment on cholesterol in serum (setting [1]) and with cholesterol in serum (setting [2]) were 35% and 72%, respectively.
Consider `COC(=O)c1c(C(=O)CC2CCCCC2)c(O)c2cc(OC)c(OC)c(OC)c2c1-c1ccc(OC)c(OC)c1` [Example 7, 3-(2-Cyclohexyl-1-oxoethyl)-1-(3,4-dimethoxyphenyl)-4-hydroxy-2-methoxycarbonyl-6,7,8-trimethoxynaphthalene], for which, in the experiment with LDL, the 50% inhibitory concentration (IC50) was determined as 2580 nM. Moreover, the inhibition in vivo at 0.12 % in diet was found to be 23% in the experiment on cholesterol in serum (setting [1]) and 59% in the experiment on cholesterol in serum (setting [2]).
Take `CCC(CC)CC(=O)c1c(C(=O)OC)c(-c2ccc(OC)c(OC)c2)c2sccc2c1O` [Example 15, 7-(3,4-Dimethoxyphenyl)-5-(3-ethyl-1-oxopentyl)-4-hydroxy-6-(methoxycarbonyl)benzo[b]thiophene]: the IC50 in the experiment on LDL was 7900 nM. Also, the inhibition in vivo at 0.12 % in diet in the experiment with cholesterol in serum (setting [1]) was 23%; in the experiment with cholesterol in serum (setting [2]), 43%.
Taken in the same sequence, the figures for `COC(=O)c1c(C(=O)c2ccccc2)c(O)c2c(C)c(OC)c(OC)c(OC)c2c1-c1ccc(OC)c(OC)c1` [Example 78, 3-benzoyl-1-(3,4-dimethoxyphenyl)-4-hydroxy-2-methoxycarbonyl-5-methyl-6,7,8-trimethoxynaphthalene] were 620 nM, 14% and 42%.
In the same order, the values of `COc1ccc(-c2c(C)c(C(=O)c3ccc(C(F)(F)F)cc3)c(O)c3cc(OC)c(OC)c(OC)c23)cc1OC` [Example 62, 1-(3,4-dimethoxyphenyl)-4-hydroxy-2-methyl-3-[4-(trifluoromethyl)benzoyl]-6,7,8-trimethoxynaphthalene] are 8980 nM, 27% and 59%.
In the same order, the values of `CCC(=O)c1c(C(=O)OC)c(-c2ccc(OC)c(OC)c2)c2sc(CC)c(OC)c2c1O` [Example 56, 7-(3,4-Dimethoxyphenyl)-2-ethyl-4-hydroxy-3-methoxy-6-methoxycarbonyl-5-(1-oxopropyl)benzo[b]thiophene] are 1280 nM, 20% and 58%.
`CCC(=O)c1c(C(=O)OC)c(-c2ccc(OC)c(OC)c2)c2c(OC)c(OC)c(OC)c(OC)c2c1O` [Example 73, 1-(3,4-dimethoxyphenyl)-3-(1-oxopropyl)-4-hydroxy-2-methoxycarbonyl-5,6,7,8-tetramethoxynaphthalene]: the IC50 with LDL is 2920 nM. Further, the inhibition in vivo at 0.12 % in diet came out at 13% in the experiment with cholesterol in serum (setting [1]) and 60% with cholesterol in serum (setting [2]).
